Laboratory results taken from US20040248762A1, “Malodor counteractant compositions” (priority 2003, published 2004).
Where “and” joins values, the source holds several entries; their conditions need not be identical. Equal values may be shown once.

Assays:
[1] = Synthetic axilla malodor on cotton pads, panel rating of malodor strength; set-up: species or system human; settings: scale 5 overpowering to 1 not detectable; for 5% OMC + 5% Compound B (axilla malodor panel score): mixture 5% OMC + 5% Compound B
Experimental: 100 μl of synthetic axilla malodor was placed onto cotton pads. 0.4 g of an ethanolic solution containing 10% (wt) of a test compound identified in Table 1 was placed on each axilla malodor treated cotton pad. Each pad was allowed to dry 15 for minutes, and then evaluated using a 10-member panel after 3 hours. The test cotton pads were randomized, and each panelist was asked to check a box that represented the strength of the axilla malodor using the following scale:
In this example, the MOC effect of various mixtures of a Class A MOC compound and a Class B MOC compound (i.e., dihexyl fumerate as disclosed in Kulka, U.S. Pat. No. 3,074,892) were evaluated using the same test and malodor evaluation procedures as set forth in Example 1. Each test solution contained 5% (wt) DHF and 5% (wt) of the Class A compound identified in Table 3. The MOC effect was evaluated as in Example 1.
Various mixtures of OMC (a Class A Compound) and a Class B compound (i.e., various cyclohexyl esters as disclosed in Schleppnik '221) as identified in Table 4 below were made according to the procedure set forth in Example 1. The MOC of each mixture was evaluated using the procedure set forth in Example 1.

[2] = MOC of sweat malodor on fabric swatches; set-up: species or system human; settings: summary of Table 6
Experimental: The following fabric treatment solutions were prepared:
1. A solution of ethanol and Cremophor (a hydrogenated ethoxylated castor oil marketed by BASF Corp., Mount Olive, N.J.) containing 10% (wt) of dihexyl fumerate (DHF).
2. A solution of ethanol and Cremophor containing 10% (wt) of OMC.
3. A solution of ethanol and Cremophor containing 5% (wt) of DHF+5% (wt) OMC.
Five (5) fabric swatches were prepared, and labeled A-E. Swatch A was designated as the control swatch with no malodor. 100 μl of sweat malodor was placed in the middle of swatches B-E. Swatch B was designated as the control swatch for the malodor. The swatches were allowed to equilibrate with the malodor for 20 minutes. Onto swatches C-E, the following solutions were sprayed:
The malodor intensity on the cotton swatches was evaluated as follows:
The malodor intensity on swatch B (Malodor Control) was identified as a 5 (overpoweringly strong) on the scale of 1-5 set forth below at every time point, and the rest of swatches were evaluated based on that standard.

SMILES	10% OMC (Alone) (axilla malodor panel score) ([1]; 10% OMC alone, run beside the Compound B of that table line)	5% OMC + 5% Compound B (axilla malodor panel score) ([1]; procedure of Example 1)	MOC effect on sweat malodor on fabric (in words) [2]	10% test (Compound B Alone) (axilla malodor panel score) ([1]; 10% Compound B alone, procedure of Example 1)
CCCCC(CC)COC(=O)/C=C/c1ccc(OC)cc1 (stereo not drawn) [OMC, Octyl methoxy cinnamate]	3.1 and 2.6 and 3.2	acts at least additively	had a MOC effect	–
CCCCCCOC(=O)/C=C/C(=O)OCCCCCC [Dihexyl Fumerate, reference compound]	–	2.3	had a MOC effect	2.6
